Data on two substances can be found in US8563473B2, “Aqueous herbicidal concentrates of auxinic carboxylic acids with reduced eye irritancy” (Dow AgroSciences, LLC., priority 2010, dated 2013).

The subject of one series is susceptible plants. The following applies: concentrate diluted in water, applied postemergently; disclosed in WO 2008/106107 A1; cited from earlier work.
The nature of series [1]: Cold temperature stability / storage of aqueous concentrates. The format is physicochemical. The following applies: […] salt solution ([…] acid equivalent) stored at −10° C. for 14 days.

As to choline salt of 2,4-D [2,4-D choline], the Weed control entry with susceptible plants is recorded as “good weed control”.

As to triclopyr choline salt, in series [1], the Crystallization on storage result is listed as “did not show any crystallization”.
